Assay results taken from paper PMC11603362, “Cannabidiol inhibits transient receptor potential canonical 4 and modulates excitability of pyramidal neurons in mPFC” (Frontiers in Pharmacology, 2024).

Molecular target: T1, TRPC4 (Homo sapiens, UniProt Q9UBN4)
T1 construct: human TRPC4a channel
T1 sequence (Q9UBN4 1-977): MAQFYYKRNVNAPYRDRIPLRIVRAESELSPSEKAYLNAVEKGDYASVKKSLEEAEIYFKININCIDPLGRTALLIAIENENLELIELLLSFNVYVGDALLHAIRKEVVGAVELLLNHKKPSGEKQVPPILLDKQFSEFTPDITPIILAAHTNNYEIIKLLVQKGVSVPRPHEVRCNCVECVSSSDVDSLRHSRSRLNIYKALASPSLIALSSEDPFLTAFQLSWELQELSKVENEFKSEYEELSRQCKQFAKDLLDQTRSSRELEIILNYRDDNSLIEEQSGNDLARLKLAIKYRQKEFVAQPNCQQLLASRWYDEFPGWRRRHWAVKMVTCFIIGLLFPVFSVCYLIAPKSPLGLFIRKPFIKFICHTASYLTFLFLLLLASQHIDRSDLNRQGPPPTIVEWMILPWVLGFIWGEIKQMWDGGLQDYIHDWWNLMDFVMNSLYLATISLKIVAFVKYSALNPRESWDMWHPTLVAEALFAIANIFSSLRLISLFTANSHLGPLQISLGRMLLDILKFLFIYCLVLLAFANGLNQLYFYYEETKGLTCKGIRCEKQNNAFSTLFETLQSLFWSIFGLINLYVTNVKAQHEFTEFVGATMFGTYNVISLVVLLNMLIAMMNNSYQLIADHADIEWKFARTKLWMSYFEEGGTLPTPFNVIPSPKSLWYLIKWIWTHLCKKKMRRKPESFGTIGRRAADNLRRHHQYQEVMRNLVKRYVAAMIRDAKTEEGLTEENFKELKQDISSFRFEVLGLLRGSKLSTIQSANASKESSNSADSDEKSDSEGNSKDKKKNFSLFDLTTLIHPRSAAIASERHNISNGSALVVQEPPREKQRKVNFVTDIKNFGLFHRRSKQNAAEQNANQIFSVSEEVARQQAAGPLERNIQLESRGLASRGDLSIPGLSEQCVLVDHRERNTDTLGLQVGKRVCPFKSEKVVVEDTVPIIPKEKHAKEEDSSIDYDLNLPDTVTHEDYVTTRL
Test: whole-cell patch clamp in HEK293-TRPC4 cells (EA-evoked current); also Ca2+ influx assay
Format: cell-based

## C=C(C)[C@@H]1CCC(C)=C[C@H]1c1c(O)cc(CCCCC)cc1O [CBD, Cannabidiol]
  IC50: 1520 ± 600 nM
